In PMC9033141, “Beta and Gamma Amino Acid-Substituted Benzenesulfonamides as Inhibitors of Human Carbonic Anhydrases” (Pharmaceuticals, 2022):
Read-outs that look alike come from different tables or passages of the source.

Assays:
CAXII = biological target: T1, CAXII (Homo sapiens, UniProt O43570); assay: biochemical; format: binding; settings: for Kd: FTSA, pH 7.0, 37 °C, read-out: Observed Dissociation Constant (Kd_obs), CAXII
T1 construct: made in house; host or cells: E. coli

CAIV = biological target: T2, CAIV (Homo sapiens, UniProt P22748); assay: Fluorescent thermal shift assay (FTSA), CAIV; format: binding; settings: for Kd: FTSA, pH 7.0, 37 °C, read-out: Observed Dissociation Constant (Kd_obs), CAIV;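 on all read-outs here: recombinant human enzyme, thermal denaturation followed by ANS fluorescence, melting temperature versus ligand concentration fitted for Kd_obs, intrinsic value corrected for deprotonated sulfonamide and Zn-bound water fractions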
T2 construct: made in house; host or cells: E. coli
Description: (§1) Human CA isozymes were expressed in E. coli (CAI, II, III, IV, VA, VB, VII, XII, XIII, XIV) or mammalian cells (CAVI and CAIX), chromatographically purified following the published protocols [47], and stored at −80 °C. The protein concentration was determined by UV absorption at 280 nm using Beer–Lambert law.
(§2) The QIAGEN Rotor-Gene Q was used to carry out the experiments, with a blue channel used for excitation (365 nm) and detection (460 nm). FTSA in this case relies on an extrinsic probe, 8-anilino-1-naphthalenesulfonate (ANS), to detect the fluorescence increase during protein denaturation, from which protein melting temperature (Tm) can be determined. […] The observed affinity of ligands for CAs was determined by plotting the Tm as a function of ligand concentration and then fitting a curve as described previously [48]. […] Samples were heated from 25 °C to 99 °C at the speed of 1 °C/min.
(§3) The intrinsic thermodynamic parameters were calculated as described in [40]. The intrinsic reaction of inhibitor binding to CA is shown in Equation (1). […] It is known that CA proteins bind sulfonamides only when water molecules are coordinated to the Zn(II) ion, and sulfonamides only bind to CA proteins when their amino group is deprotonated (confirmed by neutron crystallography [53, 54, 55]):(1) CA Zn^II−H2O+RSO2NH^−⇄ CA Zn^II−NH SO2R+H2O
(§4) When calculating Kd_int values, these protein and ligand fractions from Equation (1) have to be accounted for (Equations (2) and (3)). The intrinsic dissociation constant is calculated by multiplying Kd_obs value by the corresponding fractions of protein and ligand (Equation (4)). (2) fRSO2NH^−=10^pH−pKa_RSO2NH2/1+10^pH−pKa_RSO2NH2 (3) fCAZnH2O=1−10^pH−pKa_CAZnH2O/1+10^pH−pKa_CAZnH2O (4) Kd_int=Kd_obs×fRSO2NH^−×fCAZnH2O (5) ΔGint0=RTlnKd_int
(§5) The intrinsic standard Gibbs energy changes upon binding were calculated using Equation (5). Here, R—universal ideal gas constant (8.3144 J/mol·K), T—absolute temperature (310.15 K).

CAVB = biological target: T3, CAVB (Homo sapiens, UniProt Q9Y2D0); assay: Fluorescent thermal shift assay (FTSA), CAVB; format: binding; settings: for Kd: FTSA, pH 7.0, 37 °C, read-out: Observed Dissociation Constant (Kd_obs), CAVB
T3 construct: made in house; host or cells: E. coli
Description: as §1, §2, §3, §4, §5

CAVII = biological target: T4, CAVII (Homo sapiens, UniProt P43166); assay: Fluorescent thermal shift assay (FTSA), CAVII; format: binding; settings: for Kd: FTSA, pH 7.0, 37 °C
T4 construct: made in house; host or cells: E. coli
Description: as §1, §2, §3, §4, §5

CAXIII [1] = biological target: T5, CAXIII (Homo sapiens, UniProt Q8N1Q1); assay: biochemical; settings: Observed Dissociation Constant (Kd_obs), FTSA, pH 7.0, 37 °C;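 further: recombinant human CAXIII melting temperature tracked by ANS fluorescence in thermal shift assay, Tm fitted against ligand concentration, intrinsic value corrects Kd for deprotonated sulfonamide and Zn-bound water fractions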
Description: as §1, §2
(§6) The intrinsic thermodynamic parameters were calculated as described in [40]. The intrinsic reaction of inhibitor binding to CA is shown in Equation (1).
as §4, §5

CAVA = biological target: T6, CAVA (Homo sapiens, UniProt P35218); assay: Fluorescent thermal shift assay (FTSA), CAVA; format: binding; settings: for Kd: FTSA, pH 7.0, 37 °C, read-out: Observed Dissociation Constant (Kd_obs), CAVA
T6 construct: made in house; host or cells: E. coli
Description: as §1, §2, §3, §4, §5

CAXIV = biological target: T7, CAXIV (Homo sapiens, UniProt Q9ULX7); assay: Fluorescent thermal shift assay (FTSA), CAXIV; format: binding; settings: for Kd: FTSA, pH 7.0, 37 °C, read-out: Observed Dissociation Constant (Kd_obs), CAXIV;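 on all read-outs here: recombinant human CA XIV from E. coli, ANS-based thermal shift: Kd_obs fitted from melting temperature versus ligand concentration, ΔGint from Kd_obs corrected for deprotonated sulfonamide and Zn-water fractions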
T7 construct: made in house; host or cells: E. coli
Description: as §1, §2, §3, §4, §5

CAII = biological target: T8, CAII (Homo sapiens, UniProt P00918); assay: biochemical; format: binding; settings: for Kd: FTSA, pH 7.0, 37 °C, read-out: Observed Dissociation Constant (Kd_obs), CAII
T8 construct: made in house; host or cells: E. coli

CAI = biological target: T9, CAI (Homo sapiens, UniProt P00915); assay: biochemical; format: binding; settings: for Kd: FTSA, pH 7.0, 37 °C, read-out: Observed Dissociation Constant (Kd_obs), CAI
T9 construct: made in house; host or cells: E. coli
Description: as §1, §2, §6, §4, §5

CAIX = biological target: T10, CAIX (Homo sapiens, UniProt Q16790); assay: biochemical; format: binding; settings: for Kd: FTSA, pH 7.0, 37 °C, read-out: Observed Dissociation Constant (Kd_obs), CAIX
T10 construct: made in house

CAVI = biological target: T11, CAVI (Homo sapiens, UniProt P23280); assay: Fluorescent thermal shift assay (FTSA), CAVI; format: binding; settings: for Kd: FTSA, pH 7.0, 37 °C, read-out: Observed Dissociation Constant (Kd_obs), CAVI;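 on all read-outs here: human CAVI expressed in mammalian cells, ANS fluorescence tracked during thermal unfolding, melting temperature fitted against ligand concentration, intrinsic values corrected for deprotonated sulfonamide and Zn-bound water fractions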
T11 construct: made in house
Description: as §1, §2, §3, §4, §5

CAIII = biological target: T12, CAIII (Homo sapiens, UniProt P07451); assay: Fluorescent thermal shift assay (FTSA), CAIII; format: binding; settings: for Kd: FTSA, pH 7.0, 37 °C, read-out: Observed Dissociation Constant (Kd_obs), CAIII
T12 construct: made in house; host or cells: E. coli
Description: as §1, §2, §3, §4, §5

[2] = Determination of compound sulfonamide group pKa (UV-Vis spectra at different pH); format: physicochemical; settings: universal buffer; spectrophotometric, 37 °C; read-out: Sulfonamide pKa
Description: To calculate the intrinsic thermodynamic parameters of compound binding to CA isozymes, the pKa values of the sulfonamide group and the water molecule bound to the Zn(II) ion at the active site of CA proteins had to be determined. The pKa values for CA isozyme-bound water molecules were taken from, CAI—8.1; CAII—6.9; CAIII—6.5; CAIV—6.6; CAVA—6.7; CAVB—7.0; CAVI—6.0; CAVII—6.8; CAIX—6.6; CAXII—6.8; CAXIII—8.0; CAXIV—6.1. […] The pKa values were calculated as described previously in [28, 52] by normalizing the absorbance, plotting it as a function of pH, then fitting to the Henderson–Hasselbalch equation using the least square method (Figure S105).
Since the pKa values were only able to be measured for compound group 26–36, due to universal buffer pH limitations, intrinsic thermodynamic parameters were not calculated for compounds 2(a,b)–25(a,b), only for compounds 26–36 using experimentally obtained pKa values when possible and using the average pKa value mentioned above for compounds not measured.

CAXIII [3] = biological target: T5, CAXIII; settings: 37 °C; calculated (Equation 5)
Description: as §1, §2, §6, §4, §5

[4] = read-out: Observed Dissociation Constant (Kd_obs), CAVII
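Wherever Observed Dissociation Constant (Kd obs), CAXII is given: recombinant CAXII made in E. coli, ANS-fluorescence thermal shift with affinity fitted from Tm versus ligand concentration, intrinsic energy from Kd_obs corrected for deprotonated sulfonamide and Zn-water fractions.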

T12 sequence (P07451 whole entry): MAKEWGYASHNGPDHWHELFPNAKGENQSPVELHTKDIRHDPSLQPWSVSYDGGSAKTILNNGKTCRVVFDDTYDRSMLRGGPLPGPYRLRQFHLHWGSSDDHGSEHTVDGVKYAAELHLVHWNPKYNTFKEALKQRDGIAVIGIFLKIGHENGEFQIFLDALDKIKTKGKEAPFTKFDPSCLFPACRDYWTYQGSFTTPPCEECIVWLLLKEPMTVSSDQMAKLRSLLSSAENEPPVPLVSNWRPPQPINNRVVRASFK
T11 sequence (P23280 21-290 limits assumed): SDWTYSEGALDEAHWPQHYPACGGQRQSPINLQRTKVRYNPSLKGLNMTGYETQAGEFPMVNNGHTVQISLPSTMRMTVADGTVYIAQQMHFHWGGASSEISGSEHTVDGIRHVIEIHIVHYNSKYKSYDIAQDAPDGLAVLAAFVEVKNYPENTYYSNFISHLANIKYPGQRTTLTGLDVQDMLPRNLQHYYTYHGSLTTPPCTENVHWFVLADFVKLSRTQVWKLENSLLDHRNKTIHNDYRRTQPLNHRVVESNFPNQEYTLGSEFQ
T4 sequence (P43166 whole entry): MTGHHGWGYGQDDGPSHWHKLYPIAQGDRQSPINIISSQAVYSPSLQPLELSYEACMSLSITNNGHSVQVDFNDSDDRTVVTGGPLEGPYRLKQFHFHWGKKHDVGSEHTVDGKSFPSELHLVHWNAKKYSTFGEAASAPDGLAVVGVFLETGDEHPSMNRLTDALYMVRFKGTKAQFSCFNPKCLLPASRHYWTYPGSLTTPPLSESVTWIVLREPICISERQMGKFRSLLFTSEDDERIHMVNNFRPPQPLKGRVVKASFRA
T2 sequence (P22748 19-312): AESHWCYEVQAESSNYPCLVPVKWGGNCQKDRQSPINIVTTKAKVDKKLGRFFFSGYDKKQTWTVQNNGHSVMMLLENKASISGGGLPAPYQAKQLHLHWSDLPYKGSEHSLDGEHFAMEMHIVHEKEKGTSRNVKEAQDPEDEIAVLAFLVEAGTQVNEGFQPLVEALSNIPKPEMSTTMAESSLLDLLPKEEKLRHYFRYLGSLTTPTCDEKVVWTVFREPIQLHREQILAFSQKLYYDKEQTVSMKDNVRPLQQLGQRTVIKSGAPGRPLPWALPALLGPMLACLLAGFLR
T3 sequence (Q9Y2D0 34-317): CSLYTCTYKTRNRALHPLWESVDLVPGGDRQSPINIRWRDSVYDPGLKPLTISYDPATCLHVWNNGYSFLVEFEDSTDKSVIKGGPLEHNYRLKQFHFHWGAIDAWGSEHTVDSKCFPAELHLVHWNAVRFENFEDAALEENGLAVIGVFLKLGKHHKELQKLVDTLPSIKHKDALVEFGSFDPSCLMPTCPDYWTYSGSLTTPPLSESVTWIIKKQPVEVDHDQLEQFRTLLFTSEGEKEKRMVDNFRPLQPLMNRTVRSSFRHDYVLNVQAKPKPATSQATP
T1 sequence (O43570 25-354): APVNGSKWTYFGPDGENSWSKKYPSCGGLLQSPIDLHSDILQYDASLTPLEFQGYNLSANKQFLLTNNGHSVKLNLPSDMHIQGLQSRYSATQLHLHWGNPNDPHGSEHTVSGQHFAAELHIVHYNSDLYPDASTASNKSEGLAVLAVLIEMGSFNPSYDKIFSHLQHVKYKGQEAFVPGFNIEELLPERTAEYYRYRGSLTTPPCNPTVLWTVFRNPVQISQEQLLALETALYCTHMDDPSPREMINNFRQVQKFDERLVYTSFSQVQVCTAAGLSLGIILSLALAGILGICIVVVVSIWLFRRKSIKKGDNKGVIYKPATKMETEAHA
T9 sequence (P00915 whole entry): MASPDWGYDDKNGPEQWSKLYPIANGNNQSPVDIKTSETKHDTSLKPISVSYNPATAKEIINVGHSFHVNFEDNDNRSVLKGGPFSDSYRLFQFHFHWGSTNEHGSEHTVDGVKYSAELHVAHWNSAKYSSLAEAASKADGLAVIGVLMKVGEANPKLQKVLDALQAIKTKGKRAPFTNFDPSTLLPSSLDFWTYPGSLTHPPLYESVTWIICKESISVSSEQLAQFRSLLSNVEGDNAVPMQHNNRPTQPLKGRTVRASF
T5 sequence (Q8N1Q1 whole entry): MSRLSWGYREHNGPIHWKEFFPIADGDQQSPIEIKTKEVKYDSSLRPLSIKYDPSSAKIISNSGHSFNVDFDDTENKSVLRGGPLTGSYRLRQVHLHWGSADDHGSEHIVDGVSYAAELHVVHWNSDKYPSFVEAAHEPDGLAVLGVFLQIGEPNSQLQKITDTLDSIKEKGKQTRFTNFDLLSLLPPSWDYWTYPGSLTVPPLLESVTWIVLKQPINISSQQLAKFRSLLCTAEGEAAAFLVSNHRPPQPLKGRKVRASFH
T7 sequence (Q9ULX7 16-337): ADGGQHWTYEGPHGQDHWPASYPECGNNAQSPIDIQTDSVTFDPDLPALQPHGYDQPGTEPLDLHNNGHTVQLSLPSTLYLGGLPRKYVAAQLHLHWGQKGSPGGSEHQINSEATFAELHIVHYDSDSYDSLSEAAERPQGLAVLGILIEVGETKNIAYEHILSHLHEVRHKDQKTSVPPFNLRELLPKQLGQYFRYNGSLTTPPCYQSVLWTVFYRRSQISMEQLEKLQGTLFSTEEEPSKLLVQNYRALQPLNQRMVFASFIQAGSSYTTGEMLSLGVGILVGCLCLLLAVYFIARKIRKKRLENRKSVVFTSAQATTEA
T6 sequence (P35218 39-305): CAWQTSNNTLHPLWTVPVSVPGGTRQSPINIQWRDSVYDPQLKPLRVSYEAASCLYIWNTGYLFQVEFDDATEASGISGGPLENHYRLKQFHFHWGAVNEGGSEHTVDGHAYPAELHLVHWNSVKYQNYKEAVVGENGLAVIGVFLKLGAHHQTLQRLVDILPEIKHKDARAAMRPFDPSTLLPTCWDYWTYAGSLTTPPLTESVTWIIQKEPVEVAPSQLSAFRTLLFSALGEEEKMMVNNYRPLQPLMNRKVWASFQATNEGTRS

melting point	Kd (CAXII)	Kd (CAIV)	Kd (CAVB)	Kd (CAVII; [4])	Kd (CAXIII [1])	Kd (CAVA)	Kd (CAXIV)	Kd (CAII)	Kd (CAI)	Kd (CAIX)	Kd (CAVI)	Kd (CAIII)	Compound	other results
308 to 309 °C	20 µM	33 µM	14000 nM	6700 nM	25000 nM	20 µM	5000 nM	5000 nM	20000 nM	1400 nM	33 µM	≥ 200 µM	NS(=O)(=O)c1ccc(NCC(CC(=O)NN=Cc2ccc(C(=O)O)cc2)C(=O)NN=Cc2ccc(C(=O)O)cc2)cc1 (stereo not drawn) [Compound 18a, 4,4′-(((2-(((4-Sulfamoylphenyl)amino)methyl)succinyl)bis(hydrazin-2-yl-1-ylidene))bis(methaneylylidene))dibenzoic acid]	
226 to 227 °C	14 µM	1 µM	830 nM		250 nM	2.9 µM	130 nM	200 nM	670 nM	100 nM	0.67 µM	≥ 200 µM	NS(=O)(=O)c1ccc(NCC(CC(=O)NN=Cc2ccc(O)cc2)C(=O)NN=Cc2ccc(O)cc2)c(Cl)c1 (stereo not drawn) [Compound 9b, 3-Chloro-4-((2-(2-(4-hydroxybenzylidene)hydrazine-1-carbonyl)-4-(2-(4-hydroxybenzylidene)hydrazineyl)-4-oxobutyl)amino)benzenesulfonamide]	Kd (CAVII; Observed Dissociation Constant (Kd_obs), CAVII): 250 nM
294 to 295 °C	13 µM	13 µM	6700 nM	330 nM	1800 nM	6.7 µM	1000 nM	1300 nM	5000 nM	250 nM	20 µM	≥ 200 µM	NS(=O)(=O)c1ccc(NCC(CC(=O)NN=Cc2ccc(C(=O)O)cc2)C(=O)NN=Cc2ccc(C(=O)O)cc2)c(Cl)c1 (stereo not drawn) [Compound 18b, 4,4′-(((2-(((2-Chloro-4-sulfamoylphenyl)amino)methyl)succinyl)bis(hydrazin-2-yl-1-ylidene))bis(methaneylylidene))dibenzoic acid]	

The next lines start with the compound.

Compound	melting point	Kd (CAXII)	Kd (CAIV)	Kd (CAVB)	Kd (CAVII; [4])	Kd (CAXIII [1])	Kd (CAVA)	Kd (CAXIV)	Kd (CAII)	Kd (CAI)	Kd (CAIX)	Kd (CAVI)	Kd (CAIII)	other results
NS(=O)(=O)c1ccc(NCC(Cc2n[nH]c(=S)n2-c2ccccc2)c2n[nH]c(=S)n2-c2ccccc2)c(Cl)c1 (stereo not drawn) [Compound 25b, 4-((2,3-bis(4-Phenyl-5-thioxo-4,5-dihydro-1H-1,2,4-triazol-3-yl)propyl)amino)-3-chlorobenzenesulfonamide]	175 to 176 °C	0.63 µM	1.4 µM	1400 nM	170 nM	400 nM	38 µM	25 nM	25 nM	170 nM	25 nM	0.2 µM	5 µM	
NS(=O)(=O)c1ccc(NCC(CC(=O)NN=Cc2ccccc2)C(=O)NN=Cc2ccccc2)c(Cl)c1 (stereo not drawn) [Compound 6b, 4-((2-(2-(Benzylidene)hydrazine-1-carbonyl)-4-(2-(benzylidene)hydrazineyl)-4-oxobutyl)amino)-3-chlorobenzenesulfonamide]	212 to 213 °C	7.9 µM	4.2 µM	130 nM	290 nM	180 nM	20 µM	140 nM	240 nM	1400 nM	100 nM	0.67 µM	≥ 200 µM	
Cc1cc(C)n(C(=O)CC(CNc2ccc(S(N)(=O)=O)cc2Cl)C(=O)n2nc(C)cc2C)n1 (stereo not drawn) [Compound 20, 3-Chloro-4-((4-(3,5-dimethyl-1H-pyrazol-1-yl)-2-(3,5-dimethyl-1H-pyrazole-1-carbonyl)-4-oxobutyl)amino)benzenesulfonamide]	201 to 202 °C	13 µM	2 µM	3300 nM	10000 nM	2900 nM	22 µM	330 nM	500 nM	5000 nM	100 nM	20 µM	≥ 200 µM	
CNC(=S)NNC(=O)CC(CNc1ccc(S(N)(=O)=O)cc1)C(=O)NNC(=S)NC (stereo not drawn) [Compound 22a, 2,2′-(2-(((4-Sulfamoylphenyl)amino)methyl)succinyl)bis(N-methylhydrazine-1-carbothioamide)]	192 to 193 °C	11 µM	6.7 µM	25000 nM	10000 nM	33000 nM	33 µM	3300 nM	2500 nM	50000 nM	330 nM	13 µM	≥ 200 µM	
NS(=O)(=O)c1ccc(N(CCC(=O)O)c2nc(-c3ccc(Cl)cc3)c(Cl)s2)cc1 [Compound 36, 3-((5-Chloro-4-(4-chlorophenyl)thiazol-2-yl)(4-sulfamoylphenyl)amino)propanoic acid]		0.12 µM	3.3 µM	400 nM	33 nM	23 to 40 nM	≥ 200 µM		23 to 40 nM	20 nM	23 nM	6.3 µM	17 µM	pKa [2]: 10.2; Intrinsic Gibbs energy change (ΔGint), CAXII (CAXII; 37 °C, calculated (Equation 5)): -62.4 kJ/mol; Intrinsic Gibbs energy change (ΔGint), CAIV (CAIV; 37 °C, calculated (Equation 5)): -54.7 kJ/mol; Intrinsic Gibbs energy change (ΔGint), CAVB (CAVB; 37 °C, calculated (Equation 5)): -58.7 kJ/mol; Intrinsic Gibbs energy change (ΔGint), CAVII (CAVII; 37 °C, calculated (Equation 5)): -65.8 kJ/mol; Intrinsic Gibbs energy change (ΔGint), CAXIII (CAXIII [3]): -63.1 kJ/mol; Intrinsic Gibbs energy change (ΔGint), CAVA (CAVA; 37 °C, calculated (Equation 5)): ≤ -43.7 kJ/mol; Intrinsic Gibbs energy change (ΔGint), CAXIV (CAXIV; 37 °C, calculated (Equation 5)): -65.4 kJ/mol; Intrinsic Gibbs energy change (ΔGint), CAII (CAII; 37 °C, calculated (Equation 5)): -64.9 kJ/mol; Intrinsic Gibbs energy change (ΔGint), CAI (CAI; 37 °C, calculated (Equation 5)): -64.8 kJ/mol; Intrinsic Gibbs energy change (ΔGint), CAIX (CAIX; 37 °C, calculated (Equation 5)): -67.5 kJ/mol; Intrinsic Gibbs energy change (ΔGint), CAVI (CAVI; 37 °C, calculated (Equation 5)): -56.0 kJ/mol; Intrinsic Gibbs energy change (ΔGint), CAIII (CAIII; 37 °C, calculated (Equation 5)): -50.9 kJ/mol
Cc1csc(N(CCC(=O)NN=Cc2ccccc2)c2ccc(S(N)(=O)=O)cc2)n1 [Compound 30, 4-((3-(2-Benzylidenehydrazineyl)-3-oxopropyl)(4-methylthiazol-2-yl)amino)benzenesulfonamide]	170 to 171 °C	110 µM	27 µM	11000 nM	100000 nM	8300 nM	≥ 200 µM	6700 nM	4000 nM	3300 nM	290 nM	67 µM	≥ 200 µM	
Cc1ccc(C)n1NC(=O)CC(CNc1ccc(S(N)(=O)=O)cc1Cl)C(=O)Nn1c(C)ccc1C (stereo not drawn) [Compound 19b, 2-(((2-Chloro-4-sulfamoylphenyl)amino)methyl)-N^1,N^4-bis(2,5-dimethyl-1H-pyrrol-1-yl)succinamide]	232 to 233 °C	1.3 µM	1.8 µM	1400 nM	200 nM	130 nM	20 µM	25 nM	50 nM	290 nM	56 nM	5 µM	≥ 200 µM	
